From patent US9567384B2, “Phosphorylation on the Thr-248 and/or Thr-250 residues of transcription factor E2F4 as a therapeutic target in pathological processes associated with somatic polyploidy” (CONSEJO SUPERIOR DE INVESTIGACIONES CIENTIFICAS (CSIC), priority 2011, dated 2017) come the findings set out here.

For one assay, the system named is cMyc gene promoter. Kind of assay: Luciferase assay, cMyc gene promoter reporter in chick embryo retinal cell neurogenic cultures E6. The assay is classed as cell-based. As to the method: (§1) These cells respond to NGF by inducing cell cycle reactivation that leads to somatic tetraploidy (endoreduplication) (Morillo et al., 2010). A. Western blot with anti-active p38^MAPK (P-p38^MAPK) and anti-p38^MAPK in nuclear extracts of the mentioned neurogenic cultures treated for the indicated time with 100 ng/ml NGF. The normalized ratios between P-p38^MAPK and p38^MAPK levels are indicated at the bottom. B. Immunohistochemical staining with anti-active p38^MAPK antibodies (P-p38^MAPK) in the mentioned neurogenic cultures treated with 100 ng/ml NGF for 20 minutes. The nuclei were labeled with bisbenzimide (Bisb.). […] C. Luciferase assay in extracts of chick embryo retinal cell neurogenic cultures E6 transfected with a plasmid expressing luciferase under the control of cMyc gene promoter, known for its response to E2F during G1/S transition, and another plasmid with the constitutive expression of β-galactosidase. The luciferase/β-galactosidase ratio values are depicted as “luciferase activity”. […] This effect is blocked with selective p38^MAPK inhibitor SB203580 (used at 5 μM). D. Incorporation of BrdU to indicate entry into S phase in chick embryo retinal cell neurogenic cultures E6.

In a further assay the test system is E2F4. The experiment in a line: Western blot with anti-phosphoThr antibodies in extracts immunoprecipitated with anti-E2F4 antibodies. Particulars: 100 ng/ml NGF. The assay is classed as cell-based, chick. In general terms: Immunoblotting shows a protein as a band on a membrane.
The test system of another assay is p38^MAPK. Kind of assay: Immunohistochemical staining with anti-active p38MAPK antibodies in neurogenic cultures. The assay is classed as cell-based, chick. The note with it: 100 ng/ml NGF for 20 minutes. As for the experimental part: as §1
For assay [1], the system named is chick embryo retinal cell neurogenic cultures E6. Kind of assay: Incorporation of BrdU (entry into S phase) in chick embryo retinal cell neurogenic cultures E6. The assay is classed as cell-based. As to the method:
as §1
A. Luciferase activity analyzed as described in FIG. 2C. […] Based on the results shown in panels A and B, it is deduced that p38^MAPK acts exclusively through Thr261/Thr263 residues. C. Luciferase activity analyzed as described in FIG. 2C.

Where [2] appears, read: expression of E2F4-ND, 100 ng/ml NGF.

As to nerve growth factor [NGF], the “luciferase activity (luciferase/β-galactosidase ratio), cMyc promoter” value with cMyc gene promoter (100 ng/ml NGF) is “entails cMyc promoter activation”. In the assay on E2F4, the “phosphorylation on threonine residues of E2F4” value was “increase in phosphorylation on threonine residues”. Also, in the assay with p38^MAPK, the “active p38MAPK (P-p38MAPK) signal in the nucleus” value was “signal increase”. For the same compound, the “incorporation of BrdU, proportion of cells in S phase” value in assay [1] (100 ng/ml NGF) is on record as “an increase in the proportion of cells in S phase”.
For `C[S+]([O-])c1ccc(-c2nc(-c3ccncc3)c(-c3ccc(F)cc3)[nH]2)cc1` (stereo not drawn) [SB203580, reference compound], in the assay with cMyc gene promoter (100 ng/ml NGF, SB203580 used at 5 μM), the “effect on NGF-induced cMyc promoter activation (luciferase activity)” value is given as “blocked”. For the same compound, the “effect on NGF-promoted phosphorylation on threonine residues of E2F4” value in the assay on E2F4 (SB203580 used at 5 μM) was “inhibits such phosphorylation”. Moreover, in assay [1] (100 ng/ml NGF, inhibitor used at 5 μM), the “effect on NGF-induced increase in the proportion of cells in S phase (BrdU)” value is listed as “blocked”.
With “E2F4-CA: constitutively active form of chicken E2F4 characterized by Thr261Glu/Thr263Glu substitutions”, the “cMyc promoter activity (luciferase activity)” value is recorded as “can be observed even in the presence” in the assay on cMyc gene promoter (expression of E2F4-CA in the presence of SB203580 5 μM) and “induces cMyc promoter activity” in the assay with cMyc gene promoter (expression of E2F4-CA, transfected cells). In addition, the “incorporation of BrdU” value in assay [1] (cells transfected with E2F4-CA) is reported as “increases significantly”; in assay [1] (cells transfected with E2F4-CA in the presence of SB203580 5 μM) it was “can be observed even in the presence”. For the same compound, the “mimicking the effect of NGF on retinal neurons (cell cycle reactivation)” value in assay [1] (summary of FIG. 4A, FIG. 4B (luciferase and BrdU)) is “capable of mimicking the effect of NGF”.
For the compound “E2F4-ND: negative dominant form of chicken E2F4 characterized by Thr261Ala/Thr263Ala substitutions, preventing phosphorylation by p38MAPK”, the “effect of NGF on cMyc promoter activity (luciferase activity)” value in the assay with cMyc gene promoter (setting [2]) is “prevents the effect”. Also, the “effect of NGF on the incorporation of BrdU” value in assay [1] (setting [2]) is given as “prevents the effect”. Besides, the “effect of NGF on the cell cycle in neurogenic retinal cultures” value in assay [1] (summary of FIG. 4C, FIG. 4D (luciferase and BrdU)) is “capable of inhibiting the effect of NGF”.
